Like-named read-outs stand apart in the source and are kept apart here.
How the values were obtained:
mPGES-1 = target: T1, mPGES-1 (Homo sapiens, UniProt O14684); assay: mPGES-1 enzyme activity assay (PGE2 enzyme immunoassay), human enzyme; type: biochemical; parameters: made in house; host or cells: FreeStyle 293-F cells, crude microsomal preparation; details: for IC50: recombinant microsomal enzyme, means ± SD, triplicate
T1 sequence (O14684 1-152): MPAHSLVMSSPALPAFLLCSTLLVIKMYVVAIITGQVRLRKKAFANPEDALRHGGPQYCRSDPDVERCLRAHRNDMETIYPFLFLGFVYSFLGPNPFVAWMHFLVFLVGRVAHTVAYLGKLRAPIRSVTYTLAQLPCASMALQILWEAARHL
How it was run: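 Crude microsomal enzyme from transfected FreeStyle 293-F cells, preincubated 15 min at room temperature with compound in phosphate pH 7.2 with GSH. Reaction started with 1 μM PGH2, stopped after 30 s with SnCl2; non-enzymatic background without enzyme. PGE2 by enzyme immunoassay; IC50 computed.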

mPGES-1 Mouse enzyme = target: T2, mPGES-1 Mouse enzyme (Mus musculus, UniProt Q9JM51); assay: mPGES-1 enzyme activity assay (PGE2 enzyme immunoassay), mouse enzyme; type: biochemical; details: for IC50: recombinant microsomal enzyme, means ± SD, triplicate; for inhibition at 10 µM: compound at a concentration of 10 μM, read-out: % inhibition of the compound against mPGES-1, Mouse enzyme
T2 construct: made in house; host or cells: FreeStyle 293-F cells, crude microsomal preparation
T2 sequence (Q9JM51 1-153): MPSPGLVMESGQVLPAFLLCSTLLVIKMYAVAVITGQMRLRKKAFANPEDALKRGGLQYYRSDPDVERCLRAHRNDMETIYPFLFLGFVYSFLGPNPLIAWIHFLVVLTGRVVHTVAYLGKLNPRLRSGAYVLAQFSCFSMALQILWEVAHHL
Protocol: Studies were conducted to characterize the inhibitory activity against recombinant mPGES-1 of the compounds synthesized in accordance with Examples 1-4, and disclosed herein.
Briefly, FreeStyle 293-F cells were cultured following manufacturer's manual in FreeStyle 293 expression medium on orbit rotate shaker in 8% CO2 incubator at 37° C. Cells were transfected with 1.5 μg/mL of mPGES-1/pcDNA3 construct using FreeStyle Max reagent at a cell density of 1×10^6 for 2 days. Transfected cells were collected, washed, and sonicated in TSES buffer (15 mM Tris-HCl, pH 8.0 plus 0.25 M sucrose, 0.1 mM EDTA and 1 mM DTT) on ice. The broken cells were first centrifuged at 12,500×g for 10 min. The supernatant was further centrifuged at 105,000×g for 1 hr at 4° C. The pellet was washed and homogenized in PBS buffer. The crude microsomal mPGES-1 preparation was aliquoted and stored at −80° C. The crude protein concentration was 8 mg/mL.
The enzyme activity assays were performed on ice in 1.5 ml microfuge tubes by using the expressed mPGES-1. The reaction mixture contained: 0.2 M Na2HPO4/NaH2PO4, pH 7.2, 10 μL; 0.1 M GSH, 2.5 μL; diluted microsomal enzyme (80 μg/mL), 1 μL; PGH2 (0.31 mM in DMF), 5 μL; 1 μL inhibitor; and H2O in a final reaction volume of 100 μL. PGH2 was stored in dry ice and used to initiate the reaction.
Compounds were incubated with the enzyme for 15 min at room temperature before the addition of cold PGH2 (1 μM final) to initiate the enzyme reaction. After 30 s, 10 μL of SnCl2 (40 mg/mL) in ethanol was added to stop the reaction. The nonenzymatic conversion of PGH2 to PGE2 was performed in the same buffer devoid of enzyme. The reaction mixture was placed on ice until PGE2 production was determined by the PGE2 enzyme immunoassay as described earlier. IC50 values of the inhibitors were calculated by using the GraphPad Prism 4.0 program. The results are set forth in the tables provided in Examples 7-10.

[1] = read-out: IC50 against mPGES-1, Human enzyme
[2] = read-out: IC50 against mPGES-1, Mouse enzyme
[3] = IC50 against mPGES-1, Mouse enzyme
[4] = IC50 against mPGES-1, Human enzyme

| Structure (SMILES) | IC50 (mPGES-1; [1]) [nM] | inhibition at 10 µM (mPGES-1 Mouse enzyme) [%] | also measured |
| --- | --- | --- | --- |
| O=C(O)CN1C(=O)S/C(=C2\C(=O)N(CC3CCCCC3)c3ccc(-c4ccc(-c5ccccc5)cc4)cc32)C1=O [II-19] | 154 ± 20 |  | IC50 (mPGES-1 Mouse enzyme; [2]): 1020 ± 162 nM |
| O=C(O)CN1C(=O)S/C(=C2\C(=O)N(CC3CCCCC3)c3ccc(-c4ccc5ccccc5c4)cc32)C1=O [II-20] | 531 ± 90 |  | IC50 (mPGES-1 Mouse enzyme; [2]): 244 ± 31 nM |
| O=C(O)CN1C(=O)S/C(=C2\C(=O)N(CC3CCCCC3)c3ccc(-c4ccc(C#Cc5ccccc5)cc4)cc32)C1=O [II-21] | 91 ± 23 |  | IC50 (mPGES-1 Mouse enzyme; [2]): 1960 ± 348 nM |
| O=C(O)CN1C(=O)S/C(=C2\C(=O)N(CC3CCCCC3)c3ccc(-c4ccc(C#CC5CCCCC5)cc4)cc32)C1=O [II-22] | 25 ± 5 |  | IC50 (mPGES-1 Mouse enzyme; [2]): 685 ± 406 nM |
| O=C(O)CN1C(=O)S/C(=C2\C(=O)Nc3ccc(-c4ccccc4)cc32)C1=O [II-23] | 8020 ± 1050 | 63 |  |
| O=C(O)CN1C(=O)S/C(=C2\C(=O)N(CCC3CCCCC3)c3ccc(-c4ccccc4)cc32)C1=O [II-24] | 32 ± 6 |  | IC50 (mPGES-1 Mouse enzyme; [2]): 777 ± 364 nM |
| O=C(O)CN1C(=O)S/C(=C2\C(=O)N(CCCC3CCCCC3)c3ccc(-c4ccccc4)cc32)C1=O [II-25] | 16 ± 4 |  | IC50 (mPGES-1 Mouse enzyme; [2]): 1220 ± 430 nM |
| O=C(O)CN1C(=O)S/C(=C2\C(=O)N(CCCCC3CCCCC3)c3ccc(-c4ccccc4)cc32)C1=O [II-26] | 13 ± 3 |  | IC50 (mPGES-1 Mouse enzyme; [2]): 1130 ± 244 nM |
| O=C(O)CN1C(=O)S/C(=C2\C(=O)N(Cc3ccc(Cl)cc3)c3ccc(-c4ccccc4)cc32)C1=O [II-27] | 54 ± 14 |  | IC50 (mPGES-1 Mouse enzyme; [2]): 13200 ± 5080 nM |
| O=C1NC(=O)/C(=C2/C(=O)N(CCCC3CCCCC3)c3ccccc32)S1 [II-28] | 1390 ± 273 | 0 |  |
| O=C1NC(=S)S/C1=C1\C(=O)N(CCCC2CCCCC2)c2ccccc21 [II-29] | 1260 ± 335 | 29 |  |
| O=C(O)CN1C(=O)/C(=C2\SC(=S)NC2=O)c2ccccc21 [II-30] | 211 ± 67 | 6.1 |  |
| O=C(O)CN1C(=O)/C(=C2\SC(=O)N(CCCCc3ccccc3)C2=O)c2ccccc21 [II-31] | 962 ± 159 | 64 |  |
| O=C(O)CN1C(=O)/C(=C2\SC(=O)N(CCCCC3CCCCC3)C2=O)c2ccccc21 [II-32] | 2560 ± 442 | 44 |  |
| O=C(CCCN1C(=O)C=CC1=O)Nc1ccc2c(c1)Cc1ccccc1-2 [III-01] | 1920 ± 300 | 48 |  |
| O=C(CCCCCN1C(=O)C=CC1=O)Nc1ccc2c(c1)Cc1ccccc1-2 [III-02] | 613 ± 103 |  | IC50 (mPGES-1 Mouse enzyme; [2]): 2880 ± 496 nM |
| O=C(CCCN1C(=O)C=CC1=O)Nc1ccc(OCCCC2CCCCC2)cc1 [III-03] |  | 55 | inhibition at 10 µM (mPGES-1; compound at a concentration of 10 μM, read-out: % inhibition of the compound against mPGES-1, Human enzyme): 63% |
| O=C1S/C(=C\c2ccc(Oc3cc([N+](=O)[O-])c([N+](=O)[O-])cc3F)c([N+](=O)[O-])c2)C(=O)N1CCCCC1CCCCC1 [IV-01] | 296 ± 48 | 91 |  |
| CCOc1ccc(-c2nn(-c3ccc(Cl)cc3)cc2C=C2C(=O)NC(=O)NC2=O)cc1 [VI-01] | 265 ± 96 | 28 |  |
| CCCCOc1ccc(-c2nn(-c3ccccc3)cc2C=C2C(=O)NC(=O)NC2=O)cc1 [VI-02] | 212 ± 34 |  | IC50 (mPGES-1 Mouse enzyme; [3]): 2570 ± 628 nM |

| Structure (SMILES) | IC50 (mPGES-1; [1]) [nM] | inhibition at 10 µM (mPGES-1 Mouse enzyme) [%] | also measured |
| --- | --- | --- | --- |
| CCCCOc1ccc(-c2nn(-c3ccc(Cl)cc3)cc2C=C2C(=O)NC(=O)NC2=O)cc1 [VI-03] | 169 ± 41 |  | IC50 (mPGES-1 Mouse enzyme; [3]): 357 ± 75 nM |
| CCCCCCOc1ccc(-c2nn(-c3ccc(Cl)cc3)cc2C=C2C(=O)NC(=O)NC2=O)cc1 [VI-04] | 285 ± 65 | 46 |  |
| CCCCCCCCOc1ccc(-c2nn(-c3ccccc3)cc2C=C2C(=O)NC(=O)NC2=O)cc1 [VI-05] |  |  | IC50 (mPGES-1; [4]): 323 ± 52 nM; IC50 (mPGES-1 Mouse enzyme; [3]): 2160 ± 188 nM |
| CCCCCCCCOc1ccc(-c2nn(-c3ccc(Cl)cc3)cc2C=C2C(=O)NC(=O)NC2=O)cc1 [VI-06] | 361 ± 51 |  | IC50 (mPGES-1 Mouse enzyme; [3]): 740 ± 108 nM |
| CCCCCCCCCCOc1ccc(-c2nn(-c3ccccc3)cc2C=C2C(=O)NC(=O)NC2=O)cc1 [VI-07] |  | 21 | IC50 (mPGES-1; [4]): 375 ± 127 nM |
| CCCCCCCCCCOc1ccc(-c2nn(-c3ccc(Cl)cc3)cc2C=C2C(=O)NC(=O)NC2=O)cc1 [VI-08] | 294 ± 83 | 24 |  |
| O=C1NC(=O)C(=Cc2cn(-c3ccccc3)nc2-c2ccc(OCc3ccccc3)cc2)C(=O)N1 [VI-09] |  | 0 | IC50 (mPGES-1; [4]): 598 ± 142 nM |
| CCOc1ccc(-c2nn(-c3ccc(Cl)cc3)cc2C=C2C(=O)NC(=S)NC2=O)cc1 [VI-10] | 95 ± 16 | 46 |  |
| CCCCOc1ccc(-c2nn(-c3ccccc3)cc2C=C2C(=O)NC(=S)NC2=O)cc1 [VI-11] | 92 ± 20 |  | IC50 (mPGES-1 Mouse enzyme; [3]): 1260 ± 138 nM |
| CCCCOc1ccc(-c2nn(-c3ccc(Cl)cc3)cc2C=C2C(=O)NC(=S)NC2=O)cc1 [VI-12] | 56 ± 10 |  | IC50 (mPGES-1 Mouse enzyme; [3]): 445 ± 83 nM |
| CCCCCCOc1ccc(-c2nn(-c3ccc(Cl)cc3)cc2C=C2C(=O)NC(=S)NC2=O)cc1 [VI-13] | 52 ± 15 |  | IC50 (mPGES-1 Mouse enzyme; [3]): 1770 ± 1160 nM |
| CCCCCCCCOc1ccc(-c2nn(-c3ccccc3)cc2C=C2C(=O)NC(=S)NC2=O)cc1 [VI-14] |  |  | IC50 (mPGES-1; [4]): 113 ± 23 nM; IC50 (mPGES-1 Mouse enzyme; [3]): 1130 ± 131 nM |
| CCCCCCCCOc1ccc(-c2nn(-c3ccc(Cl)cc3)cc2C=C2C(=O)NC(=S)NC2=O)cc1 [VI-15] | 92 ± 19 |  | IC50 (mPGES-1 Mouse enzyme; [3]): 316 ± 30 nM |
| CCCCCCCCCCOc1ccc(-c2nn(-c3ccccc3)cc2C=C2C(=O)NC(=S)NC2=O)cc1 [VI-16] |  | 50 | IC50 (mPGES-1; [4]): 188 ± 31 nM |
| CCCCCCCCCCOc1ccc(-c2nn(-c3ccc(Cl)cc3)cc2C=C2C(=O)NC(=S)NC2=O)cc1 [VI-17] | 93 ± 14 | 56 |  |
| O=C1NC(=S)NC(=O)C1=Cc1cn(-c2ccccc2)nc1-c1ccc(OCc2ccccc2)cc1 [VI-18] |  | 25 | IC50 (mPGES-1; [4]): 797 ± 160 nM |
| CCOc1ccc(-c2nn(-c3ccc(Cl)cc3)cc2/C=C2\SC(=O)N(CC(=O)O)C2=O)cc1 [VII-10] | 41 ± 5 | 35 |  |
| CCCCCCOc1ccc(-c2nn(-c3ccc(Cl)cc3)cc2/C=C2\SC(=O)N(CC(=O)O)C2=O)cc1 [VII-11] | 36 ± 11 | 37 |  |
| CCOc1ccc(-c2nn(-c3ccc(Cl)cc3)cc2/C=C(/C#N)C(=O)O)cc1 [VII-12] | 282 ± 83 | 12 |  |
| CCCCOc1ccc(-c2nn(-c3ccccc3)cc2/C=C(/C#N)C(=O)O)cc1 [VII-13] | 296 ± 68 | 21 |  |

— patent US12030877B2, “Prostaglandin E synthase inhibitors and methods for utilizing the same” (University of Kentucky Research Foundation, priority 2016, dated 2024)
